# Measured values from patent publication US12595253B2, “Benzamides of pyrazolylamino-pyrimidinyl derivatives, and compositions and methods thereof” (LYNK PHARMACEUTICALS CO. LTD., priority 2019, dated 2026).
# Tests used:
# JAK1 = biological target: T1, JAK1 (Homo sapiens, UniProt P23458); test: JAK1 microfluidic kinase assay (Caliper EZ Reader II, FAM labeled peptide substrate); type: biochemical
# T1 construct: purchased Carna Biosciences
# In short: (§1)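 Activity measured in 50 mM HEPES, 0.01% Brij35, 10 mM MgCl2, 2 mM DTT by microfluidic separation of phosphorylated FAM peptide. Enzyme conditions set for 10% substrate conversion.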
# TYK2 = biological target: T2, TYK2 (Homo sapiens, UniProt P29597); test: TYK2 microfluidic kinase assay (Caliper EZ Reader II, FAM labeled peptide substrate); type: biochemical
# T2 construct: purchased Carna Biosciences
# T2 sequence (P29597 whole entry): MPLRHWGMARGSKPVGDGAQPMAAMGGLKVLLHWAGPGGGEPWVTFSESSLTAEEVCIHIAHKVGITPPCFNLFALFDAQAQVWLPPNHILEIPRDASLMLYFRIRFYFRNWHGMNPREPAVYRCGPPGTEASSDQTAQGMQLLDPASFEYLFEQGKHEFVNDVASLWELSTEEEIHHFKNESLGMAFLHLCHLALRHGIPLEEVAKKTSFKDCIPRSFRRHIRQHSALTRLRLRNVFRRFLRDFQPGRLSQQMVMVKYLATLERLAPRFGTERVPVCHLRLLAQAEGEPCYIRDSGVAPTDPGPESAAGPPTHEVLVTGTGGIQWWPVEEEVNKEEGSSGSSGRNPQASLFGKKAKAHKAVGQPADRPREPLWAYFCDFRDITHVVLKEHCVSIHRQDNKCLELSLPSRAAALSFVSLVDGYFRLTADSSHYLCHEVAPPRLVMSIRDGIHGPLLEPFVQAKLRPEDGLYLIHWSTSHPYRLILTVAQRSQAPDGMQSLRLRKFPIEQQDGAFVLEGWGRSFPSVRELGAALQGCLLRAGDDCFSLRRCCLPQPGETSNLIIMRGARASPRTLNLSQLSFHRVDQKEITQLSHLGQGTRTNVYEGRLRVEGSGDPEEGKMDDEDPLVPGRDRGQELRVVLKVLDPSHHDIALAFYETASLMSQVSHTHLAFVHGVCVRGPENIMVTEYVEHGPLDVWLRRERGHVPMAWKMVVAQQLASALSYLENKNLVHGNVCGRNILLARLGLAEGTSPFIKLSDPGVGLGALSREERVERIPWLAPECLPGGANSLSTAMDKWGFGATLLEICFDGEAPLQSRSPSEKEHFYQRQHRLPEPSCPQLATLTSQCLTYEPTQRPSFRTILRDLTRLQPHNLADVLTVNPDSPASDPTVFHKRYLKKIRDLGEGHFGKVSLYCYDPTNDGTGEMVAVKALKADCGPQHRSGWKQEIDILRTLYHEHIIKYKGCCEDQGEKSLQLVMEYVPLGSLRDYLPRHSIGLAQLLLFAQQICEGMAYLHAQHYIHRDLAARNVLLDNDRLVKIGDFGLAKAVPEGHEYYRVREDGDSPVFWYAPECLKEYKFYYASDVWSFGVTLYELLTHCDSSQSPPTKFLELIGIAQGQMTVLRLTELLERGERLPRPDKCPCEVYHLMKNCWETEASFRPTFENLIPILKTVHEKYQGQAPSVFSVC
# Protocol: Compounds were tested against JAK1, JAK2, JAK2V617F and TYK2. Assay Formats: JAK activity was determined in the reaction buffer 50 mM HEPES, 0.01% Brij35, 10 mM MgCl2, 2 mM DTT by a microfluidic assay. The phosphorylation of a FAM labeled peptide substrate was monitored in the Caliper EZ Reader II (Perkin Elmer). The assay condition for each batch of enzyme (Carna Biosciences) was optimized to obtain 10% conversion rate of peptide substrate. The test compounds were dissolved in DMSO to a stock concentration of 10 mM. 3-fold serially diluted compounds with top concentration of 5 μM were pre-incubated with JAK1, JAK2, JAK2V617F or TYK2 at indicated concentrations for 10 min at ambient temperature. The final DMSO concentration of assay mixture was 1%. […] The reaction was stopped by adding 50 mM EDTA. The reaction time for JAK1, JAK2, JAK2V617F and TYK2 was 120 min, 20 min, 30 min and 10 min, respectively. […] And the well without compound but with equivalent DMSO was defined as no inhibition. The percent inhibition was calculated by the following formula. % Inhibition=(Conversionmax−Conversionsample)/(Conversionmax−Conversionmin)*100 • Conversionmax means the conversion rate in the positive well without addition of compound • Conversionmin means the conversion rate in the well without addition of enzyme • Conversionsample means the conversion rate of test compounds The dose-response (percent inhibition) curve was plotted and IC50 values were determined by GraphPad software.
# [1] = Liver microsomes study, Phase I stability (HLM); type: in vitro ADME, human; settings: pH 7.4; human liver microsomes 0.5 mg/mL, 1 μM test article; read-out: HLM Clint
# Protocol: (§2) Commercially available liver microsomes (MsLM vendor: XENOTECH; RLM, DLM, MkL, HLM vendor: Corning) were used for study the Phase I stability of test articles. […] The reaction was initiated by addition of 80 μL of the NADPH regenerating system to 320 µL of each incubation mixture per time point. […] The 0-minute samples were prepared by addition of an 80 μL aliquot of each incubation mixture to 400 μL quench reagent to precipitate proteins. And then a 20 μL aliquot of the NADPH regenerating system was added. At 10, 30, and 90 minutes, the reaction will be stopped by the addition of cold acetonitrile solution containing tolbutamide and propanolol served as internal standard. The samples taken at all time points were centrifuged at 4000×g for 15 minutes. 80 μL of supernatant are taken into 96-well assay plates pre-added with 160 μL ultrapure water, and then analyzed by LC/MS/MS(Shimadzu LC30AD & API4000/API5000)). Concentrations of test articles, control compounds in the samples were determined by using LC/MS/MS) method. Plotting of the chromatograms and peak area integrations are carried out by Analyst (AB Sciex).
# (§3) In the determination of the in vitro elimination constant, ke, of the control compounds, the analyte/internal standard peak area ratios will be converted to percentage remaining (% Remaining) with the following equation: […]
# (§4) The slope was measured by the natural logarithm of the percentage of the residual compound and time, T½ and CLint were calculated according to the following formulas, V/M was equal to the 1/concentration of protein.
# JAK2 = biological target: T3, JAK2 (Homo sapiens, UniProt O60674); test: JAK2 microfluidic kinase assay (Caliper EZ Reader II, FAM labeled peptide substrate); type: biochemical
# T3 construct: purchased Carna Biosciences
# T3 sequence (O60674 whole entry): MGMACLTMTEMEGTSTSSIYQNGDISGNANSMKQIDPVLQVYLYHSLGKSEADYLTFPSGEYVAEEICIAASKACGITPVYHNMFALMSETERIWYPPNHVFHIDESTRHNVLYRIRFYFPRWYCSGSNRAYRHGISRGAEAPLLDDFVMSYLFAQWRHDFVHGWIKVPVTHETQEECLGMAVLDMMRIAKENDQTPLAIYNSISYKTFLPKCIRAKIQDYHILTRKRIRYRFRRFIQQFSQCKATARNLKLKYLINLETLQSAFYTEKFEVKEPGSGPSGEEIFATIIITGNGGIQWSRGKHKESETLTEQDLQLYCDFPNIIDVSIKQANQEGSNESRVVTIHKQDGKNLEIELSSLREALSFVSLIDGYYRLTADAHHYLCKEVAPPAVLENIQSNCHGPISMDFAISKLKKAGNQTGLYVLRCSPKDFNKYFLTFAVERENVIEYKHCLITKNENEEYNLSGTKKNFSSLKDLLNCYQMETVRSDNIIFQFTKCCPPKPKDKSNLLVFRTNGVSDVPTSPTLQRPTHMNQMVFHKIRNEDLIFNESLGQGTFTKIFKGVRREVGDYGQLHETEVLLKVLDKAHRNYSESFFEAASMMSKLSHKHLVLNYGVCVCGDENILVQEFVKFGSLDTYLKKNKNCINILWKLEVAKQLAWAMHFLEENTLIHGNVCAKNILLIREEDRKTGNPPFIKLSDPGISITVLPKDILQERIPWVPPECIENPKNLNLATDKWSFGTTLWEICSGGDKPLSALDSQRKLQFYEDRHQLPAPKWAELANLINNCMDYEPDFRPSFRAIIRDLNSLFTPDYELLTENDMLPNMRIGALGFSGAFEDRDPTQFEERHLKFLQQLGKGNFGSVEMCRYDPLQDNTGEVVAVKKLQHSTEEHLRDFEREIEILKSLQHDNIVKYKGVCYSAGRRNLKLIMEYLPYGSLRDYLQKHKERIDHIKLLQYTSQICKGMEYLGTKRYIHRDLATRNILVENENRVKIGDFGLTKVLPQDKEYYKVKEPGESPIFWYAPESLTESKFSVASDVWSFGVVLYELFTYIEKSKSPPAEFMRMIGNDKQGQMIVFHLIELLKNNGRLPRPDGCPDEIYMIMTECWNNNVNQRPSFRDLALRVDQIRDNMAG
# In short: as §1
# JAK2V617F = biological target: T4, JAK2V617F (Homo sapiens, UniProt O60674, V617F); test: JAK2V617F microfluidic kinase assay (Caliper EZ Reader II, FAM labeled peptide substrate); type: biochemical; settings: JAK2V617F 2.5 nM, 1 mM ATP
# T4 construct: purchased Carna Biosciences
# T4 sequence (O60674 whole entry V617F): as the sequence (O60674 whole entry) above, with V617F counted along it
# In short: as §1
# [2] = Liver microsomes study, Phase I stability (RLM); type: in vitro ADME, rat; settings: pH 7.4; rat liver microsomes 0.5 mg/mL, 1 μM test article; read-out: RLM Clint
# Protocol: as §2, §3, §4
# [3] = IC50 JAK1 (5 nM) (1 m MATP), JAK1 5 nM, 1 mM ATP
# [4] = IC50 TYK2 ([…]) (1 mM ATP), TYK2 […], 1 mM ATP
# [5] = IC50 JAK2 ([…]) (1 mM ATP), 1 mM ATP
# [6] = IC50 JAK1 (10 nM) (Km ATP), JAK1 10 nM, Km ATP
# [7] = IC50 JAK2 ([…]) (Km ATP), Km ATP
# T1 sequence (P23458 whole entry): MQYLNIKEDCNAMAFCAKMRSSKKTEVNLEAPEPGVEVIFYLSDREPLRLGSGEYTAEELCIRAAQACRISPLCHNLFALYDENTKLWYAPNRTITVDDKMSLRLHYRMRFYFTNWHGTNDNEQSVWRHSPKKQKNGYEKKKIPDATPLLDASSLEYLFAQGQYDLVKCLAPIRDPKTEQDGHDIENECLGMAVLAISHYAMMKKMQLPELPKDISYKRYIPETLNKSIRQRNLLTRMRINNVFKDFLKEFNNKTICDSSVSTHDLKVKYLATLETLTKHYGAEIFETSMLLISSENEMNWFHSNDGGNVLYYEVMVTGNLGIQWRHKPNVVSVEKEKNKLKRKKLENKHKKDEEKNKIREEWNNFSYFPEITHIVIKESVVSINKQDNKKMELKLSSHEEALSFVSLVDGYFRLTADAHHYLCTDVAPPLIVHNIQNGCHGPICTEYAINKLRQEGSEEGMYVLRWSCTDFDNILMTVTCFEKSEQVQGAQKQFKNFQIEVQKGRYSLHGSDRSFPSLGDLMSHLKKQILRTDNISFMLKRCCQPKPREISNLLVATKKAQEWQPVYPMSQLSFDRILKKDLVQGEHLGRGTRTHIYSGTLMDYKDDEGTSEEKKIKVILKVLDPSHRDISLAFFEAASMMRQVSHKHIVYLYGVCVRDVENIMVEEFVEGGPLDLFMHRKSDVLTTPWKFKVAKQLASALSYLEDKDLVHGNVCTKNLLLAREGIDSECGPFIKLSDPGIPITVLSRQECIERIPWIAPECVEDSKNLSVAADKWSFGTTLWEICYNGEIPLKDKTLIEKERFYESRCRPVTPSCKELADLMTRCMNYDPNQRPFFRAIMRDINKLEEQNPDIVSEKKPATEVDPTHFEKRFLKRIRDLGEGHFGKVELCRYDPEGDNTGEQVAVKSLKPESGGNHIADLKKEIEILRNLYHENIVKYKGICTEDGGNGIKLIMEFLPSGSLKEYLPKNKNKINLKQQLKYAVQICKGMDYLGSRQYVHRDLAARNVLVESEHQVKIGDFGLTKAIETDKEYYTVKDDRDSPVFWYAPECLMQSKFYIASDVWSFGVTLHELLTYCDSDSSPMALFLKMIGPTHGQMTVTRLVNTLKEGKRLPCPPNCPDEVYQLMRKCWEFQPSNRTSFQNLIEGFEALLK
Compound,IC50 (JAK1; [3]) [nM],IC50 (TYK2; [4]) [nM],microsomal CLint at 1 μM [1] [µL/min/mg],IC50 (JAK2; [5]) [nM],IC50 (JAK2V617F) [nM],microsomal CLint at 1 μM [2] [µL/min/mg],IC50 (JAK1; [6]) [nM],"IC50 (TYK2; IC50 TYK2 (10 nM) (Km ATP), TYK2 10 nM, Km ATP) [nM]",IC50 (JAK2; [7]) [nM]
"Cc1cnc(Nc2cnn(C3CCN(C)CC3)c2)nc1-c1ccc(C(=O)N[C@H](C)C#N)cc1 [Example 62, (R)—N-(1-cyanoethyl)-4-(5-methyl-2-((1-(1-methylpiperidin-4-yl)-1H-pyrazol-4-yl)amino)pyrimidin-4-yl)benzamide]",23.1,215,10.6,71,,,,,
"CN1CCC(n2cc(Nc3ncc(Cl)c(-c4ccc(C(=O)NCC#N)cc4)n3)cn2)CC1 [Example 44, 4-(5-Chloro-2-((1-(1-methylpiperidin-4-yl)-1H-pyrazol-4-yl)amino)pyrimidin-4-yl)-N-(cyanomethyl)benzamide]",6.55,78.7,19.5,0.54,5.11,,,,
"C[C@@H](C#N)NC(=O)c1ccc(-c2nc(Nc3cnn(C4CC4)c3)ncc2C(F)F)cc1F [Example 138, (S)—N-(1-cyanoethyl)-4-(2-((1-cyclopropyl-1H-pyrazol-4-yl)amino)-5-(difluoromethyl)pyrimidin-4-yl)-2-fluorobenzamide]",432,,10.7,688,,8.5,,,
"Cc1cnc(Nc2cnn(C3CCN(C(=O)C(C)(C)C)CC3)c2)nc1-c1ccc(C(=O)NCC#N)cc1 [Example 21, N-(Cyanomethyl)-4-(5-methyl-2-((1-(1-pivaloylpiperidin-4-yl)-1H-pyrazol-4-yl)amino)pyrimidin-4-yl)benzamide]",10.9,17.4,,< 0.25,3.55,,2.22,0.51,< 0.25
"COCCn1cc(Nc2ncc(Cl)c(-c3ccc(C(=O)N[C@@H](C)C#N)cc3)n2)cn1 [Example 177, (S)-4-(5-chloro-2-((1-(2-methoxyethyl)-1H-pyrazol-4-yl)amino)pyrimidin-4-yl)-N-(1-cyanoethyl)benzamide]",13.5,,38.7,2.74,43.9,,,,
"Cc1cnc(Nc2cnn(C)c2)nc1-c1ccc(C(=O)NCC#N)cc1 [Example 11, N-(cyanomethyl)-4-(5-methyl-2-((1-methyl-1H-pyrazol-4-yl)amino)pyrimidin-4-yl)benzamide]",19.6,83,,46.5,115,,3.32,,1.3
"CC[C@@H](C#N)NC(=O)c1ccc(-c2nc(Nc3cnn(C4CCN(C)CC4)c3)ncc2F)cc1 [Example 59, (S)—N-(1-cyanopropyl)-4-(5-fluoro-2-((1-(1-methylpiperidin-4-yl)-1H-pyrazol-4-yl)amino)pyrimidin-4-yl)benzamide]",23.6,111,,83.4,136,,,,
"CC(C)(C)C(=O)N1CCC(n2cc(Nc3ncc(Cl)c(-c4ccc(C(=O)NCC#N)cc4)n3)cn2)CC1 [Example 98, 4-(5-Chloro-2-((1-(1-pivaloylpiperidin-4-yl)-1H-pyrazol-4-yl)amino)pyrimidin-4-yl)-N-(cyanomethyl)benzamide]",17.8,,147,,1.3,,,,
"Cc1cnc(Nc2cnn(C3CC3)c2)nc1-c1ccc(C(=O)NCC#N)nc1 [Example 83, N-(cyanomethyl)-5-(2-((1-cyclopropyl-1H-pyrazol-4-yl)amino)-5-methylpyrimidin-4-yl)picolinamide]",20,45.2,,30.9,67.8,26.1,,,
"C[C@@H](C#N)NC(=O)c1ccc(-c2nc(Nc3cnn(CC#N)c3)ncc2F)cc1 [Example 53, (S)—N-(1-cyanoethyl)-4-(2-((1-(cyanomethyl)-1H-pyrazol-4-yl)amino)-5-fluoropyrimidin-4-yl)benzamide]",69.7,198,,293,658,,,,
"Cc1cnc(Nc2cnn(C3CCOCC3)c2)nc1-c1ccc(C(=O)N[C@@H](C)C(F)(F)F)cc1 [Example 75, (S)-4-(5-Methyl-2-((1-(tetrahydro-2H-pyran-4-yl)-1H-pyrazol-4-yl)amino)pyrimidin-4-yl)-N-(1,1,1-trifluoropropan-2-yl)benzamide]",12.9,,22.6,,8.91,,,,
"C[C@@H](C#N)NC(=O)c1ccc(-c2nc(Nc3cnn(C4CCN(C(=O)C(C)(C)C)CC4)c3)ncc2Cl)cc1 [Example 99, (S)-4-(5-Chloro-2-((1-(1-pivaloylpiperidin-4-yl)-1H-pyrazol-4-yl)amino)pyrimidin-4-yl)-N-(1-cyanoethyl)benzamide]",23.6,,113,,1.32,,,,
"CC(C)(C#N)CNC(=O)c1ccc(-c2nc(Nc3cnn(C4CCOCC4)c3)ncc2Cl)cc1 [Example 80, 4-(5-Chloro-2-((1-(tetrahydro-2H-pyran-4-yl)-1H-pyrazol-4-yl)amino)pyrimidin-4-yl)-N-(2-cyano-2-methylpropyl)benzamide]",22.7,370,,0.58,7.74,,,,
"Cc1cnc(Nc2cnn(C3CCN(C)C(=O)C3)c2)nc1-c1ccc(C(=O)NCC#N)cc1 (centres unmarked) [Example 66, N-(cyanomethyl)-4-(5-methyl-2-((1-(1-methyl-2-oxopiperidin-4-yl)-1H-pyrazol-4-yl)amino)pyrimidin-4-yl)benzamide]",18.3,70,,,51.7,,,,
"Cc1cnc(Nc2cnn(C3CCN(C(=O)C45CC(C4)C5)CC3)c2)nc1-c1ccc(C(=O)NCC#N)cc1 [Example 114, 4-(2-((1-(1-(Bicyclo[1.1.1]pentane-1-carbonyl)piperidin-4-yl)-1H-pyrazol-4-yl)amino)-5-methylpyrimidin-4-yl)-N-(cyanomethyl)benzamide]",12.5,,204,,,93.6,,,
"C[C@@H](C#N)NC(=O)c1ccc(-c2nc(Nc3cnn(CC#N)c3)ncc2Cl)cc1 [Example 46, (S)-4-(5-Chloro-2-((1-(cyanomethyl)-1H-pyrazol-4-yl)amino)pyrimidin-4-yl)-N-(1-cyanoethyl)benzamide]",5.55,42.7,,25.2,53.5,,,,
"Cc1cnc(Nc2cnn(C3CCN(C)CC3)c2)nc1-c1ccc(C(=O)NCC#N)cc1 [Example 49, N-(cyanomethyl)-4-(5-methyl-2-((1-(1-methylpiperidin-4-yl)-1H-pyrazol-4-yl)amino)pyrimidin-4-yl)benzamide]",7.13,38.2,,0.81,57.2,,,,
"Cc1cnc(Nc2cnn(C3CC3)c2)nc1-c1ccc(C(=O)N[C@@H](C)C#N)cc1 [Example 94, (S)—N-(1-cyanoethyl)-4-(2-((1-cyclopropyl-1H-pyrazol-4-yl)amino)-5-methylpyrimidin-4-yl)benzamide]",5.17,31.4,,10.6,33.3,,,,
